The results in this text go back to ChEMBL document CHEMBL5244230, “Artemisinin-derived hybrids and their anticancer activity” (Eur J Med Chem, 2020).

Some results are limits rather than exact numbers.

In data set [1] the test system is MCF7. As to the kind of experiment: Antiproliferative activity against doxorubicin resistant human MCF7 cells. The data set is classed as functional, cell-based.
In a further data set the test system is P388. As to the kind of experiment: Potency index, ratio of test compound IC50 to dihydroartemisinin IC50 for antiproliferative activity against mouse P388 cells assessed as reduction in cell viability measured after 72 hrs. The data set is classed as functional.
Data set [2] has as its system HL-60. The data set can be described thus: Potency index, ratio of test compound IC50 to dihydroartemisinin IC50 for antiproliferative activity against human HL-60 cells assessed as reduction in cell viability measured after 72 hrs. The data set is classed as functional.
Data set [3] is described as follows: Antiproliferative activity against mouse P388 cells assessed as reduction in cell viability measured after 72 hrs. The data set is classed as functional, cell-based. The note with it: 72 h.
In data set [4] the test system is P388/ADR. The data set can be described thus: Potency index, ratio of test compound IC50 to dihydroartemisinin IC50 for antiproliferative activity against mouse P388/ADR cells assessed as reduction in cell viability measured after 72 hrs. The data set is classed as functional.
Data set [5] has as its system P388/ADR. The data set can be described thus: Antiproliferative activity against mouse P388/ADR cells assessed as reduction in cell viability measured after 72 hrs. The data set is classed as functional, cell-based. The following applies: 72 h.
For data set [6], the system named is HL-60. As to the kind of experiment: Antiproliferative activity against human HL-60 cells assessed as reduction in cell viability measured after 72 hrs. The data set is classed as functional, cell-based. The note with it: HL-60, 72 h.
Data set [7] can be described thus: Antiproliferative activity against human 1205Lu cells. The data set is classed as functional, cell-based.
Data set [8] concerns HeLa. As to the kind of experiment: Potency index, ratio of artesunate IC50 to test compound IC50 for antiproliferative activity against human HeLA cells assessed as inhibition of cell growth. The data set is classed as functional.
Data set [9] has as its system HCT-116. The data set can be described thus: Potency index, ratio of artesunate IC50 to test compound IC50 for antiproliferative activity against human HCT-116 cells assessed as inhibition of cell growth. The data set is classed as functional.
Data set [10] is described as follows: Cytotoxicity against human HFF cells. The data set is classed as toxicity, cell-based.
The nature of data set [11]: Potency index, ratio of artesunate IC50 to test compound IC50 for antiproliferative activity against human 1205Lu cells assessed as inhibition of cell growth. The data set is classed as functional.
Data set [12] concerns HCT-116. As to the kind of experiment: Antiproliferative activity against human HCT-116 cells. The data set is classed as functional, cell-based.
Data set [13] deals with HeLa. The data set can be described thus: Antiproliferative activity against human HeLa cells. The data set is classed as functional, cell-based.
Data set [14] in a line: Antiproliferative activity against human Renal carcinoma cell. The data set is classed as functional, cell-based.
Data set [15] deals with Breast carcinoma cell. As to the kind of experiment: Antiproliferative activity against human Breast cancer cell line. The data set is classed as functional, cell-based.
Data set [16] deals with Ovarian cancer cell line. The data set can be described thus: Potency index, ratio of artemisinin IC50 to test compound IC50 for antiproliferative activity against human Ovarian cancer cell line assessed as inhibition of cell growth. The data set is classed as functional.
Data set [17] deals with Melanoma cell line. The data set can be described thus: Antiproliferative activity against human Melanoma cell line. The data set is classed as functional, cell-based.
Data set [18] has as its system Ovarian cancer cell line. As to the kind of experiment: Antiproliferative activity against human Ovarian cancer cell line. The data set is classed as functional, cell-based.
A further data set deals with Prostatic carcinoma cell. As to the kind of experiment: Potency index, ratio of artemisinin IC50 to test compound IC50 for antiproliferative activity against human Prostatic carcinoma cell assessed as inhibition of cell growth. The data set is classed as functional.
The next data set concerns leukaemia cell line. The data set can be described thus: Potency index, ratio of artemisinin IC50 to test compound IC50 for antiproliferative activity against human leukaemia cell line assessed as inhibition of cell growth. The data set is classed as functional.
In data set [19] the test system is Breast carcinoma cell. The data set can be described thus: Potency index, ratio of artemisinin IC50 to test compound IC50 for antiproliferative activity against human Breast carcinoma cell assessed as inhibition of cell growth. The data set is classed as functional.
Data set [20] concerns Melanoma cell line. The data set can be described thus: Potency index, ratio of artemisinin IC50 to test compound IC50 for antiproliferative activity against human Melanoma cell line assessed as inhibition of cell growth. The data set is classed as functional.
Data set [21] is described as follows: Antiproliferative activity against human leukaemia cell line. The data set is classed as functional, cell-based.
Data set [22] has as its system P388/ADR. The data set can be described thus: Potency index, ratio of doxorubicin IC50 to test compound IC50 for antiproliferative activity against mouse P388/ADR cells assessed as reduction in cell viability measured after 72 hrs. The data set is classed as functional.
Data set [23] deals with HCT-15. The data set can be described thus: Antiproliferative activity against human HCT-15 cells assessed as cell growth inhibition by MTT assay. The data set is classed as functional, cell-based. (In general: Tetrazolium assays rely on reduction of a dye to a coloured formazan, in cell work by metabolically active cells.)
Data set [24] has as its system A549. The data set can be described thus: Antiproliferative activity against human A549 cells assessed as inhibition of cell growth at 50 uM relative to control. The data set is classed as functional. Further details: scale not given: the % may be the effect or the level left.
A further data set concerns COLO 205. The data set can be described thus: Antiproliferative activity against human COLO 205 cells. The data set is classed as functional, cell-based.
The test system of another data set is THP-1. The data set can be described thus: Antiproliferative activity against human THP-1 cells assessed as inhibition of cell growth at 50 uM relative to control. The data set is classed as functional. Further details: scale not given: the % may be the effect or the level left.
The next data set has as its system HEK293. The data set can be described thus: Antiproliferative activity against human HEK293 cells. The data set is classed as functional, cell-based.
In another data set the test system is SMMC-7721. As to the kind of experiment: Antiproliferative activity against human SMMC-7721 cells. The data set is classed as functional, cell-based.
Data set [25] has as its system MDA-MB-231. The data set can be described thus: Antiproliferative activity against human MDA-MB-231 cells assessed as reduction in cell viability. The data set is classed as functional, cell-based.
In data set [26] the test system is A549. As to the kind of experiment: Antiproliferative activity against human A549 cells. The data set is classed as functional, cell-based.
The subject of data set [27] is HCT-15. As to the kind of experiment: Antiproliferative activity against human HCT-15 cells assessed as inhibition of cell growth at 50 uM relative to control. The data set is classed as functional. Also on record: scale not given: the % may be the effect or the level left.
The test system of another data set is PC-3. The data set can be described thus: Antiproliferative activity against human PC-3 cells. The data set is classed as functional, cell-based.
The subject of a further data set is HEp-2. The data set can be described thus: Antiproliferative activity against human HEp-2 cells assessed as inhibition of cell growth at 50 uM relative to control. The data set is classed as functional. Further details: scale not given: the % may be the effect or the level left.
In data set [28] the test system is A549. As to the kind of experiment: Antiproliferative activity against human A549 cells assessed as cell growth inhibition by MTT assay. The data set is classed as functional, cell-based.
Data set [29] can be described thus: Cytotoxicity against human HCEC cells. The data set is classed as toxicity, cell-based.
The test system of another data set is K562. As to the kind of experiment: Antiproliferative activity against human K562 cells. The data set is classed as functional, cell-based.
A further data set concerns A-431. The data set can be described thus: Antiproliferative activity against human A-431 cells. The data set is classed as functional, cell-based.
Data set [30] relates to MDA-MB-231. As to the kind of experiment: Antiproliferative activity against human MDA-MB-231 cells. The following applies: Homo sapiens, MDA-MB-231. The data set is classed as functional, cell-based.
In data set [31] the test system is MCF7. The data set can be described thus: Anticancer activity against human MCF7 cells. The data set is classed as functional, cell-based.
For the next data set, the system named is HepG2. The data set can be described thus: Antiproliferative activity against human HepG2 cells assessed as cell growth inhibition by MTT assay. The data set is classed as functional, cell-based.
The next data set has as its system C2G cell line. As to the kind of experiment: Antiproliferative activity against mouse C2G cell line. The data set is classed as functional, cell-based.

As a reminder, the IC50 is the concentration that inhibits the measured activity by half.

With `C[C@H]1[C@@H](Oc2ccc(CCn3ccnn3)cc2)O[C@@H]2O[C@@]3(C)CC[C@H]4[C@H](C)CC[C@@H]1[C@@]24OO3`, the IC50 in the data set with MCF7 [1] amounted to 47 nM; in data set [3], 47 nM; with P388/ADR [5], 2890 nM; in the data set on HL-60 [6], 65 nM. The “Ratio IC50” value with P388, in the data set on HL-60 [2] and in the data set with P388/ADR [4] was 4.6 in each case.
In the case of `C[C@H]1[C@@H](CC(C[C@H]2O[C@@H]3O[C@@]4(C)CC[C@H]5[C@H](C)CC[C@@H]([C@H]2C)[C@@]35OO4)CS(=O)(=O)c2ccc(COC(=O)N(C)C)cc2)O[C@@H]2O[C@@]3(C)CC[C@H]4[C@H](C)CC[C@@H]1[C@@]24OO3` (some centres undefined), the IC50 in data set [7] was found to be 70 nM; in data set [10] it was 4900 nM; in the data set with HCT-116 [12], 70 nM; with HeLa [13], 70 nM. Besides, the “Ratio IC50” value (in the data set with HeLa [8]; in the data set with HCT-116 [9]; in data set [11]) was 12.6 in each case.
With `C[C@H]1[C@@H](OC/C(=N\O)O[C@H]2O[C@@H]3O[C@@]4(C)CC[C@H]5[C@H](C)CC[C@@H]([C@H]2C)[C@@]35OO4)O[C@@H]2O[C@@]3(C)CC[C@H]4[C@H](C)CC[C@@H]1[C@@]24OO3`, the IC50 (in data set [14]; in the data set with Breast carcinoma cell [15]; with Melanoma cell line [17]; in the data set with Ovarian cancer cell line [18]; in [21]) was 55 nM each time. Besides, the “Ratio IC50” value in the data set on Ovarian cancer cell line [16], with Prostatic carcinoma cell, in the data set with leukaemia cell line, with Breast carcinoma cell [19], with Melanoma cell line [20] and in the data set with P388/ADR [22] was “>=4” throughout.
As to `C[C@@H]1CC[C@H]2[C@@H](C)C(=O)O[C@@H]3O[C@@]4(C)CC[C@@H]1[C@]32OO4` [ARTEMISININ], the IC50 with HCT-15 [23] was greater than 300000 nM; with COLO 205, 39000 nM; in data set [14] it was no less than 40000 nM; in the data set on Breast carcinoma cell [15], no less than 40000 nM; in the data set on HEK293, 39000 nM; in the data set on SMMC-7721 it was 440 nM. The IC50 with Melanoma cell line [17] was no less than 40000 nM; with MDA-MB-231 [25], greater than 50000 nM; in the data set on Ovarian cancer cell line [18], no less than 40000 nM; with A549 [26], greater than 50000 nM; in the data set on PC-3, 39000 nM; in data set [21], no less than 40000 nM. Moreover, the 50% inhibitory concentration (IC50) in the data set with A549 [28] was greater than 300000 nM; in data set [29], greater than 50000 nM; in the data set on K562, 39000 nM; with A-431, 39000 nM; in the data set with MDA-MB-231 [30], 39000 nM; in the data set on MCF7 [31] it was greater than 50000 nM. For the same compound, in the data set with HepG2, the IC50 was greater than 300000 nM. For the same compound, the Activity in the data set on A549 [24], in the data set on THP-1, in the data set on HCT-15 [27] and with HEp-2 was 21% each time.
Take `Nc1ccn([C@@H]2O[C@H](CO)[C@@H](O)C2(F)F)c(=O)n1` [GEMCITABINE]: 3.7 nM corresponded to half-maximal inhibition in the data set on C2G cell line (IC50).
